Measured values as given in paper PMC10584170, “Machine learning-based phenotypic imaging to characterise the targetable biology of Plasmodium falciparum male gametocytes for the development of transmission-blocking antimalarials” (PLOS Pathogens, 2023).
Read-outs that look alike come from different tables or passages of the source.

Experiments:
[1] = tested on: P. falciparum male gametocytes; experiment: P. falciparum Dual Gamete Formation Assay (PfDGFA), male readout (exflagellation); format: cell-based, Plasmodium falciparum NF54; conditions: for Activity: hit = >50% inhibition in male or female readout in at least 3 replicates, 0 = no class assigned
How it was run: (§1)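 Two sex-specific readouts come from one well: male exflagellation centres recorded by brightfield video right after activation, and female gametes scored by Cy3-anti-Pfs25 fluorescence after 24 h at 28°C.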

[2] = tested on: P. falciparum female gametocytes; experiment: P. falciparum Dual Gamete Formation Assay (PfDGFA), female readout (Pfs25-positive female gametes); format: cell-based, Plasmodium falciparum NF54
How it was run: as §1

[3] = 2µM, 24h preincubation with gametocytes prior to induction of gametogenesis, average of replicates
[4] = 2µM, 24h preincubation with gametocytes prior to induction of gametogenesis, replicate R1
[5] = 2µM, 24h preincubation with gametocytes prior to induction of gametogenesis, replicate R3
[6] = 2µM, 24h preincubation with gametocytes prior to induction of gametogenesis, replicate R4
[7] = 2µM, 24h preincubation, number of replicates with >50% inhibition in the male readout
[8] = 2µM, 24h preincubation, number of replicates with >50% inhibition in the female readout
[9] = 2µM, 24h preincubation, hits selected on >50% inhibition in the male readout across replicates
[10] = PfDGFA at 2µM, 24h preincubation
[11] = 2µM, 24h preincubation, hits selected on >50% inhibition in the female readout across replicates
[12] = number of replicates with >50% inhibition in the male readout, 2µM
[13] = number of replicates with >50% inhibition in the female readout, 2µM
[14] = PfDGFA at 2µM, 24h preincubation with gametocytes prior to induction of gametogenesis, replicate R1
[15] = PfDGFA at 2µM, 24h preincubation with gametocytes prior to induction of gametogenesis, replicate R3
[16] = PfDGFA at 2µM, 24h preincubation with gametocytes prior to induction of gametogenesis, replicate R4
[17] = PfDGFA at 2µM, 24h preincubation, average of replicates
[18] = PfDGFA at 2µM, 24h preincubation with gametocytes, average of replicates
[19] = PfDGFA at 2µM, 24h preincubation with gametocytes, replicate R1
[20] = PfDGFA at 2µM, 24h preincubation with gametocytes, replicate R3
[21] = PfDGFA at 2µM, 24h preincubation with gametocytes, replicate R4

Structure (SMILES)	Average inhibition male (%) [1, 3]	% inhibition male (individual replicates) R1 [1, 4]	% inhibition male (individual replicates) R3 [1, 5]	% inhibition male (individual replicates) R4 [1, 6]	Average inhibition female (%) [2, 3]	% inhibition female (individual replicates) R1 [2, 4]	% inhibition female (individual replicates) R3 [2, 5]	% inhibition female (individual replicates) R4 [2, 6]	HitlevelM [1, 9]	Activity [1, 10]	HitlevelF [2, 11]	other results
Cl.c1ccc2c(NCCCCCCCCCNc3ccnc4ccccc34)ccnc2c1 [TCMDC-137750]	54.0%	40.7%	8.2%	84.2%	39.1%	35.8%	19.4%	48.2%	–	–	–	HitlevelM [1, 7]: 2; HitlevelF [2, 8]: 1
O=C(O)C(F)(F)F.O=[N+]([O-])c1cccc(CNCC2CCN(Cc3ccc(-c4ccccc4)cc3)CC2)c1 [TCMDC-141208]	36.0%	32.1%	8.2%	53.6%	6.3%	-1.5%	6.7%	13.0%	2	0	0	–
Cl.NC1CCN(CCc2ccc(NS(=O)(=O)c3cccc4ccccc34)cc2)CC1 [TCMDC-134084]	20.4%	10.3%	–	7.9%	19.4%	15.4%	22.2%	21.1%	–	–	–	HitlevelM [1, 7]: 0; HitlevelF [2, 8]: 0
COc1ccc2nc(-c3ccccc3)cc(NCCCNc3cc(-c4ccccc4)nc4ccc(OC)cc34)c2c1.Cl [TCMDC-137734]	9.4%	15.3%	-6.1%	18.2%	5.7%	14.1%	-18.5%	23.4%	0	0	0	–
CCCc1cc(OC)c(CC2c3cc(O)c(Cl)cc3C(c3ccccc3)CN2C)cc1OC.Cl (stereo not shown) [TCMDC-137432]	3.7%	2.4%	-26.9%	27.9%	7.6%	-2.1%	40.4%	-8.9%	0	0	0	–
CN1CCC(NCc2ccc(-c3cccc(S(=O)(=O)NCc4ccccc4)c3)cc2)CC1.O=C(O)C(F)(F)F [TCMDC-132238]	25.7%	17.7%	-3.8%	50.9%	15.2%	18.5%	-4.9%	24.5%	1	0	0	–
CC(C)(CN)c1nc(-c2ccc(Br)c(O)c2)c(-c2ccncc2)[nH]1.Cl [TCMDC-140680]	–	–	–	–	–	–	–	–	–	–	–	Selectivity Ratio M ([1]; HepG2 Tox50 versus male IC50): 67.46; inhibition at 2 µM ([1]; Plasmodium falciparum, PfDGFA at 2µM, 24h preincubation with gametocytes, average of replicates, read-out: Average inhibition male (%)): 80.7%; inhibition at 2 µM ([1]; Plasmodium falciparum, PfDGFA at 2µM, 24h preincubation with gametocytes, replicate R1, read-out: % inhibition male (individual replicates) R1): 55.5%; inhibition at 2 µM ([1]; Plasmodium falciparum, PfDGFA at 2µM, 24h preincubation with gametocytes, replicate R2, read-out: % inhibition male (individual replicates) R2): 95.4%; inhibition at 2 µM ([1]; Plasmodium falciparum, PfDGFA at 2µM, 24h preincubation with gametocytes, replicate R3, read-out: % inhibition male (individual replicates) R3): 94%; inhibition at 2 µM ([1]; Plasmodium falciparum, PfDGFA at 2µM, 24h preincubation with gametocytes, replicate R4, read-out: % inhibition male (individual replicates) R4): 77.9%; IC50 ([1]; Plasmodium falciparum, PfDGFA, 24 h incubation with gametocytes before induction, exflagellation readout, read-out: Male IC50): 1.48 µM; HitlevelM [1, 12]: 4; Selectivity ratio F ([2]; HepG2 Tox50 versus female IC50): 175.05; inhibition at 2 µM ([2]; Plasmodium falciparum, PfDGFA at 2µM, 24h preincubation with gametocytes, average of replicates, read-out: Average inhibition female (%)): 96%; inhibition at 2 µM ([2]; Plasmodium falciparum, PfDGFA at 2µM, 24h preincubation with gametocytes, replicate R1, read-out: % inhibition female (individual replicates) R1): 91.3%; inhibition at 2 µM ([2]; Plasmodium falciparum, PfDGFA at 2µM, 24h preincubation with gametocytes, replicate R2, read-out: % inhibition female (individual replicates) R2): 95.4%; inhibition at 2 µM ([2]; Plasmodium falciparum, PfDGFA at 2µM, 24h preincubation with gametocytes, replicate R3, read-out: % inhibition female (individual replicates) R3): 104%; inhibition at 2 µM ([2]; Plasmodium falciparum, PfDGFA at 2µM, 24h preincubation with gametocytes, replicate R4, read-out: % inhibition female (individual replicates) R4): 93%; IC50 ([2]; Plasmodium falciparum, PfDGFA, 24 h incubation with gametocytes before induction, female gamete readout, read-out: Female IC50): 0.57 µM; HitlevelF [2, 13]: 4
CC(=O)N(Cc1ccc(CC(C)NCCc2cccc(Cl)c2)cc1)Cc1ccc(CC(C)NCCc2cccc(Cl)c2)cc1 (stereo not shown) [TCMDC-139678]	26.9%	39.1%	19.2%	27.9%	14.1%	15.3%	11.1%	16.3%	0	0	0	–
Cc1cccc2nc(-c3ccc(-c4ccc(CN5CCC(N)C5)cc4)s3)[nH]c12.O=C(O)C(F)(F)F (stereo not shown) [TCMDC-133862]	-1.0%	-13.8%	–	7.3%	4.0%	5.8%	5.7%	2.9%	0	0	0	–
CCc1c(CCNCCCCCCNCCc2ccc(Br)cc2)ccc(OC)c1OC.Cl [TCMDC-132045]	–	–	–	–	–	–	–	–	–	–	–	% inhibition male (individual replicates) R1 [1, 14]: -2.0%; % inhibition male (individual replicates) R3 [1, 15]: 7.0%; % inhibition male (individual replicates) R4 [1, 16]: 22.9%; Average inhibition male (%) [1, 17]: 10.8%; % inhibition female (individual replicates) R1 [2, 14]: -8.2%; % inhibition female (individual replicates) R3 [2, 15]: -48.0%; % inhibition female (individual replicates) R4 [2, 16]: -18.3%; Average inhibition female (%) [2, 17]: -21.6%
CCCn1cc2c(ccc3nc(N)nc(N)c32)n1 [TCMDC-137858]	–	–	–	–	–	–	–	–	–	–	–	% inhibition male (individual replicates) R1 [1, 14]: 0.8%; % inhibition male (individual replicates) R3 [1, 15]: -0.8%; % inhibition male (individual replicates) R4 [1, 16]: -25.8%; Average inhibition male (%) [1, 17]: 1.4%; % inhibition female (individual replicates) R1 [2, 14]: 9.1%; % inhibition female (individual replicates) R3 [2, 15]: -22.2%; % inhibition female (individual replicates) R4 [2, 16]: 2.7%; Average inhibition female (%) [2, 17]: -1.2%
CC(=O)c1ccc(NC(=O)NNC(=O)c2ccc(CCN3CCC(c4nc(COCC(F)(F)F)c(-c5ccc(F)cc5)o4)CC3)cc2)cc1 [TCMDC-131905]	–	–	–	–	–	–	–	–	–	–	–	% inhibition male (individual replicates) R1 [1, 14]: 1.3%; % inhibition male (individual replicates) R3 [1, 15]: 7.6%; % inhibition male (individual replicates) R4 [1, 16]: 18.2%; Average inhibition male (%) [1, 17]: 9.5%; % inhibition female (individual replicates) R1 [2, 14]: 5.8%; % inhibition female (individual replicates) R3 [2, 15]: -31.0%; % inhibition female (individual replicates) R4 [2, 16]: 36.9%; Average inhibition female (%) [2, 17]: 3.6%
COc1ccc2c(c1CCNCCCCNCCc1c(OC)ccc3c1CCCC3)CCCC2.CS(=O)(=O)O [TCMDC-137324]	–	–	–	–	–	–	–	–	–	–	–	Average inhibition male (%) [1, 18]: 81.7%; % inhibition male (individual replicates) R1 [1, 19]: 91.2%; % inhibition male (individual replicates) R3 [1, 20]: 86.5%; % inhibition male (individual replicates) R4 [1, 21]: 98.0%; HitlevelM [1, 12]: 4; Average inhibition female (%) [2, 18]: 79.4%; % inhibition female (individual replicates) R1 [2, 19]: 79.9%; % inhibition female (individual replicates) R3 [2, 20]: 84.0%; % inhibition female (individual replicates) R4 [2, 21]: 85.5%; HitlevelF [2, 13]: 4
O=C(Nc1ccsc1)Nc1cccc(-c2ccc(-c3nc4cc(C(F)(F)F)ccc4[nH]3)cc2)c1 [TCMDC-133210]	–	–	–	–	–	–	–	–	–	–	–	% inhibition male (individual replicates) R1 [1, 14]: -6.9%; % inhibition male (individual replicates) R3 [1, 15]: -21.6%; % inhibition male (individual replicates) R4 [1, 16]: 0.9%; Average inhibition male (%) [1, 17]: -14.6%; % inhibition female (individual replicates) R1 [2, 14]: 5.3%; % inhibition female (individual replicates) R3 [2, 15]: -25.6%; % inhibition female (individual replicates) R4 [2, 16]: -2.5%; Average inhibition female (%) [2, 17]: -7.9%
